Data: patent publication US20160145247A1, “Aminomethyl-Biaryl Derivatives Complement Factor D inhibitors and uses thereof” (NOVARTIS AG, priority 2013, published 2016)

molecular target: T1, factor D (Homo sapiens, UniProt P00746); experiment: factor D inhibition assay of Biological Example 2; format: biochemical
T1 construct: made in house; host or cells: E. coli
T1 sequence (P00746 26-253): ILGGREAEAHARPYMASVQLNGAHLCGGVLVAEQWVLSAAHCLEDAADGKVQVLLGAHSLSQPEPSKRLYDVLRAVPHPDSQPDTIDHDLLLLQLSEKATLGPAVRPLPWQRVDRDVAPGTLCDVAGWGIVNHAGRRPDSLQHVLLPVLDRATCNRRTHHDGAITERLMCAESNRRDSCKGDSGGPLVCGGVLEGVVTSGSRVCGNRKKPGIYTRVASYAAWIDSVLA

Row | SMILES | IC50 [nM]
1 | COC(=O)Cc1ccccc1NC(=O)c1cccc(-c2cc(CN)ccc2F)c1 [Example 4-A, Methyl 2-(2-(5′-(aminomethyl)-2′-fluoro-[1,1′-biphenyl]-3-ylcarboxamido)phenyl)acetate] | 33100
2 | C[C@@H](N)c1cccc(-c2cccc(COc3ccccc3CC(=O)O)c2F)c1 [Example 125, (R)-2-(2-((3′-(1-Aminoethyl)-2-fluoro-[1,1′-biphenyl]-3-yl)methoxy)phenyl)acetic acid] | 4450
3 | NCc1cccc(-c2cc(N)c(F)c(COc3ccccc3CC(=O)O)c2)c1 [154-C a), 2-(2-((5-Amino-3′-(aminomethyl)-4-fluoro-[1,1′-biphenyl]-3-yl)methoxy)phenyl)acetic acid] | 3
4 | C[C@@H](N)c1cccc(-c2cc(COc3ccccc3CC(=O)O)cc(C(O)C(F)(F)F)c2)c1 (single isomer, unassigned) [116-H b) (tr = 3.0 min)] | 10
5 | O=C(O)Cc1ccccc1OCc1cccc(-c2cccc(C3CCCN3)c2)c1 (stereo not drawn) [Example 138-J] | 2870
6 | N[C@H](CO)c1cc(-c2cccc(COc3ccccc3CC(=O)O)c2)ccn1 [Example 142-G] | 12
7 | NCc1cccc(-c2cccc(C#Cc3ccccc3CC(=O)O)c2)c1 [Example 16-C, 2-(2-((3′-(Aminomethyl)-[1,1′-biphenyl]-3-yl)ethynyl)phenyl)acetic acid] | 338
8 | CCc1ccc(NC(=O)c2cccc(-c3cc(F)cc(CN)c3)c2)c(CC(=O)O)c1 [Example 23-C, 2-(2-(3′-(Aminomethyl)-5′-fluoro-[1,1′-biphenyl]-3-ylcarboxamido)-5-ethylphenyl)acetic acid] | 396
9 | NCc1cccc(-c2cc(O)cc(C(=O)Nc3ccccc3CC(=O)O)c2)c1 [Example 59-C, 2-(2-(3′-(Aminomethyl)-5-hydroxy-[1,1′-biphenyl]-3-ylcarboxamido)phenyl)acetic acid] | 95
10 | COc1ccc(C(=O)Nc2ccccc2CC(=O)O)cc1-c1cc(F)cc(CN)c1 [Example 9] | 71
11 | COc1c(C(=O)Nc2ccccc2CC(=O)O)cccc1-c1cc(F)cc(CN)c1 [Example 93-B, 2-(2-(3′-(Aminomethyl)-5′-fluoro-2-methoxy-[1,1′-biphenyl]-3-ylcarboxamido)phenyl)acetic acid] | 6720
12 | NCc1cc(F)cc(-c2nc(C(=O)Nc3ccccc3CC(=O)O)c(N3CCOCC3)s2)c1 [Example 32, 2-(2-(2-(3-(aminomethyl)-5-fluorophenyl)-5-morpholinothiazole-4-carboxamido)phenyl)acetic acid] | 49
13 | N[C@H](CO)c1cccc(-c2ccc(C(F)(F)F)c(COc3ccccc3CC(=O)O)c2)c1 [Example 167, (S)-2-(2-((3′-(1-Amino-2-hydroxyethyl)-4-(trifluoromethyl)-[1,1′-biphenyl]-3-yl)methoxy)phenyl)acetic acid] | 30
14 | NCc1cc(F)cc(-c2cccc(C(=O)Nc3c(Cl)cccc3CC(=O)O)n2)c1 [Example 21-N] | 138
15 | NCc1cccc(-c2cc(COc3ccccc3CC(=O)O)cc(C3CC3)c2)c1 [Example 103-B, 2-(2-((3′-(Aminomethyl)-5-cyclopropyl-[1,1′-biphenyl]-3-yl)methoxy)phenyl)acetic acid] | 10
16 | NCc1cc(F)cc(-c2nc(C(=O)Nc3ccccc3CC(=O)O)c(Cl)s2)c1 [Example 30-D, 2-(2-(2-(3-(aminomethyl)-5-fluorophenyl)-5-chlorothiazole-4-carboxamido)phenyl)acetic acid] | 31
17 | N[C@H](CCO)c1cccc(-c2cccc(COc3ccccc3CC(=O)O)c2)n1 [Example 190-H] | 1120
18 | NCc1cc(F)cc(-c2cc(C(=O)Nc3ccccc3CC(=O)O)cc(-c3cnoc3)c2)c1 [Example 11-D, 2-(2-(3′-(Aminomethyl)-5′-fluoro-5-(isoxazol-4-yl)-[1,1′-biphenyl]-3-ylcarboxamido)phenyl)acetic acid] | 17
19 | NCc1cccc(-c2cc(OC[C@H]3CCCO3)cc(C(=O)Nc3ccccc3CC(=O)O)c2)c1 [Example 74-D, (R)-2-(2-(3′-(Aminomethyl)-5-((tetrahydrofuran-2-yl)methoxy)-[1,1′-biphenyl]-3-ylcarboxamido)phenyl)acetic acid] | 9
20 | Cc1c(CN)cccc1-c1cccc(COc2ccccc2CC(=O)O)c1 [Example 143-C, 2-(2-((3′-(Aminomethyl)-2′-methyl-[1,1′-biphenyl]-3-yl)methoxy)phenyl)acetic acid] | 132
21 | C[C@@](N)(CO)c1cccc(-c2cccc(COc3ccccc3CC(=O)O)c2)c1 [Example 142-F] | 260
22 | CC(O)c1cc(COc2ccccc2CC(=O)O)cc(-c2cccc([C@@H](C)N)c2F)c1 (stereo partly drawn) [Example 120-F] | 8
23 | NCc1cc(F)cc(-c2cccc(C(=O)Nc3ccc(F)cc3CC(=O)O)c2)c1 [Example 21-J] | 517
24 | CCOCc1cc(COc2ccccc2CC(=O)O)cc(-c2cccc([C@@H](C)N)c2F)c1 [Example 120-Q] | 17
25 | NCc1ccnc(-c2cccc(COc3ccccc3CC(=O)O)c2)n1 [Example 158-C, 2-(2-((3-(4-(Aminomethyl)pyrimidin-2-yl)benzyl)oxy)phenyl)acetic acid] | 1790
26 | NCc1cc(F)cc(-c2cc(Nc3ccccc3)cc(C(=O)Nc3ccccc3CC(=O)O)c2)c1 [Example 13-B, 2-(2-(3′-(Aminomethyl)-5′-fluoro-5-(phenylamino)-[1,1′-biphenyl]-3-ylcarboxamido)phenyl)acetic acid] | 9

More lines, now with the values ahead:

Row | IC50 [nM] | SMILES
27 | 6 | CN(Cc1cc(COc2ccccc2CC(=O)O)cc(-c2cccc(CN)c2)c1)CC(F)(F)F [Example 208-G]
28 | 26900 | CCOC(=O)Cc1ccccc1OCc1cc(NC[C@H]2CCCO2)cc(-c2cccc([C@@H](C)N)c2F)c1 [Example 249, Ethyl 2-(2-((3′-((R)-1-aminoethyl)-2′-fluoro-5-((((R)-tetrahydrofuran-2-yl)methyl)amino)-[1,1′-biphenyl]-3-yl)methoxy)phenyl)acetate]
29 | 16 | CCc1ccc(-c2cccc([C@@H](C)N)c2F)cc1COc1ccccc1CC(=O)O [Example 282-D, (R)-2-(2-((3′-(1-aminoethyl)-4-ethyl-2′-fluoro-[1,1′-biphenyl]-3-yl)methoxy)phenyl)acetic acid]
30 | 6 | NC(CF)c1cccc(-c2cc(COc3ccccc3CC(=O)O)cc(NCC3CCCC3)c2)c1F (stereo not drawn) [Example 216-E]
31 | 2410 | CC(=O)NC(C(=O)O)c1ccccc1OCc1cccc(-c2cccc(CN)c2)c1 (stereo not drawn) [Example 296, 2-acetamido-2-(2-((3′-(aminomethyl)-[1,1′-biphenyl]-3-yl)methoxy)phenyl)acetic acid]
32 | 20 | C[C@@H](N)c1cccc(-c2cc(CNC3CC3)cc(COc3ccccc3CC(=O)O)c2)c1F [Example 216-AD]
33 | 10 | CC(=O)NCc1ccc(CC(=O)O)c(OCc2cccc(-c3cccc(CN)c3)c2)c1 [Example 294-D]
34 | 11 | C[C@@H](N)c1cccc(-c2cc(CCC3CCCC3)cc(COc3ccccc3CC(=O)O)c2)c1F [Example 237, (R)-2-(2-((3′-(1-aminoethyl)-5-(2-cyclopentylethyl)-2′-fluoro-[1,1′-biphenyl]-3-yl)methoxy)phenyl)acetic acid]
35 | 18 | N=C(N)c1cccc(-c2cccc(COc3ccccc3CC(=O)O)c2)c1 [Example 192-B, 2-(2-((3′-Carbamimidoyl-[1,1′-biphenyl]-3-yl)methoxy)phenyl)acetic acid]
36 | 5 | NC(CF)c1cccc(-c2cc(COc3ccccc3CC(=O)O)cc(OCC3CC3)c2)c1F (racemic) [Example 206, (±)-2-(2-((3′-(1-Amino-2-fluoroethyl)-5-(cyclopropylmethoxy)-2′-fluoro-[1,1′-biphenyl]-3-yl)methoxy)phenyl)acetic acid]
37 | 290 | N[C@H](CCF)c1cccc(-c2cc(Cl)cc(COc3ccccc3CC(=O)O)c2)c1 [Example 279-B, (R)-2-(2-((3′-(1-amino-3-fluoropropyl)-5-chloro-[1,1′-biphenyl]-3-yl)methoxy)phenyl)acetic acid]
38 | 113 | C[C@@H](N)c1cccc(-c2cc(COc3ccccc3CC(=O)O)cc(S(C)(=O)=O)c2)c1F [Example 250-D, (R)-2-(2-((3′-(1-aminoethyl)-2′-fluoro-5-(methylsulfonyl)-[1,1′-biphenyl]-3-yl)methoxy)phenyl)acetic acid]
39 | 110 | C[C@@H](N)c1cccc(-c2cc(CCC3CCCN3C)cc(COc3ccccc3CC(=O)O)c2)c1F (stereo partly drawn) [Example 240-B, 2-(2-((3′-((R)-1-aminoethyl)-2′-fluoro-5-(2-(1-methylpyrrolidin-2-yl)ethyl)-[1,1′-biphenyl]-3-yl)methoxy)phenyl)acetic acid]
40 | 7 | C[C@@H](N)c1cccc(-c2cc(COc3ccccc3CC(=O)O)cc(OCC3CCCCO3)c2)c1 (stereo partly drawn) [Example 265, 2-(2-((3′-((R)-1-aminoethyl)-5-((tetrahydro-2H-pyran-2-yl)methoxy)-[1,1′-biphenyl]-3-yl)methoxy)phenyl)acetic acid]
41 | 14 | Cc1ccc(-c2cccc([C@@H](C)N)c2F)cc1COc1ccccc1CC(=O)O [Example 273-B, (R)-2-(2-((3′-(1-aminoethyl)-2′-fluoro-4-methyl-[1,1′-biphenyl]-3-yl)methoxy)phenyl)acetic acid]
42 | 6 | NCc1cccc(-c2cc(CNC(c3ccccc3)C(F)(F)F)cc(COc3ccccc3CC(=O)O)c2)c1 (stereo not drawn) [Example 286-E, 2-(2-((3′-(aminomethyl)-5-(((2,2,2-trifluoro-1-phenylethyl)amino)methyl)-[1,1′-biphenyl]-3-yl)methoxy)phenyl)acetic acid]
43 | 35 | NC(CF)c1cccc(-c2cc(CNCC(F)(F)F)cc(COc3ccccc3CC(=O)O)c2)c1F (stereo not drawn) [Example 285-A]
44 | 7 | NC(CF)c1cccc(-c2cc(COc3ccccc3CC(=O)O)cc(NC[C@@H]3CCCO3)c2)c1F (mixture of isomers) [Example 204-B, 2-(2-((3′-(1-amino-2-fluoroethyl)-2′-fluoro-5-((((S)-tetrahydrofuran-2-yl)methyl)amino)-[1,1′-biphenyl]-3-yl)methoxy)phenyl)acetic acid (mixture of diastereomers)]
45 | 2 | C[C@@H](N)c1cccc(-c2cc(COc3ccccc3CC(=O)O)cc(NCC3CCCC3)c2)c1F [Example 216-D]
